Measured values from article PMC8032624, “Prediction of dose-dependent in vivo acetylcholinesterase inhibition by profenofos in rats and humans using physiologically based kinetic (PBK) modeling-facilitated reverse dosimetry” (Archives of Toxicology, 2021).

How the values were obtained:
[1] = system: brain AChE; test: In vivo brain AChE inhibition in rats, single exposure (JMPR); settings: rat
Excerpt: To evaluate the performance of the PBK modeling-facilitated reverse dosimetry approach to predict in vivo AChE inhibition, the predicted dose–response curve for rat AChE inhibition upon exposure to profenofos was compared with available in vivo data on AChE inhibition in rats (JMPR [2007]). Furthermore, the predicted dose–response data were used for BMD modeling, using EFSA PROAST version 69.0 (https://shiny-efsa.openanalytics.eu/app/bmd) using the model averaging approach to allow evaluation of the prediction by comparison of BMDL10 values obtained from the predicted dose–response data to points of departure derived by regulatory bodies (EPA [2016]; JMPR [2007], EFSA [2019]). To that end, the obtained BMDL10 values were compared with a reported BMDL10 value from a rat study on profenofos-induced RBC AChE inhibition, which was recently used to obtain an ARfD by the US EPA (EPA [2016]), and a reported NOAEL value on profenofos-induced rat brain acetylcholinesterase inhibition, which has been used to obtain an ARfD by JMPR ([2007]).

[2] = target: AChE (Homo sapiens, UniProt P22303); test: In vitro inhibition of human recombinant AChE (Ellman); format: biochemical; set-up: purchased Sigma-Aldrich; settings: 15-min incubation at 37 °C
AChE, sequence (P22303 32-614): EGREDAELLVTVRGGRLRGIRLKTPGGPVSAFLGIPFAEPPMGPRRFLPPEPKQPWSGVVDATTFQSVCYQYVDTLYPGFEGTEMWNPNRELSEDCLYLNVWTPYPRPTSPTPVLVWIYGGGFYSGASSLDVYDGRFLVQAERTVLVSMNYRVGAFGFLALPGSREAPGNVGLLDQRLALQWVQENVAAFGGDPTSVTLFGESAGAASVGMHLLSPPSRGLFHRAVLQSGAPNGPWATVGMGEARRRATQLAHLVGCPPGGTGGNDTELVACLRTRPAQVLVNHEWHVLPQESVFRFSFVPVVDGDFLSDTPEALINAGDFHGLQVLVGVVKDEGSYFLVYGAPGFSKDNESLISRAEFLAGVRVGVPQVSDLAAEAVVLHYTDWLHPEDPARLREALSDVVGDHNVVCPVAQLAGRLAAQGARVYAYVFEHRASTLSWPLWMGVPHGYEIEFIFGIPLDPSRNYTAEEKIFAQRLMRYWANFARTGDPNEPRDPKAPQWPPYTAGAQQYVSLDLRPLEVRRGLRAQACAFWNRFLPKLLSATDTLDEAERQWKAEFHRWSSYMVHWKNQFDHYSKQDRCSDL
Method: To perform reverse dosimetry of in vitro AChE inhibition by profenofos, first the in vitro AChE activity in the absence or presence of increasing concentrations of profenofos was determined. For humans, commercially available recombinant AChE was used. For rats, no commercially available recombinant AChE was available, so rat AChE was obtained from rat blood as described below.
AChE inhibition was determined following the protocol of Ellman et al. ([1961]) as modified by Chambers and Chambers ([1989]). The concentration of acetylthiocholine and recombinant AChE were optimized to be linear for metabolite formation (data not shown). Human recombinant AChE was dissolved in 0.1 M sodium phosphate (pH 7.4) containing 1 mg/ml BSA (which was present to stabilize human recombinant AChE (Rosenfeld and Sultatos [2006])) to reach an enzyme concentration of 200 U/ml. Subsequently, the AChE enzyme solution was further diluted with 0.1 M sodium phosphate (pH 7.4) containing 1 mg/ml BSA to a working concentration of 1 U/ml. […] Subsequently, the time-dependent increase in absorbance due to formation of chromophore (DTNB + thiocholine) was measured at 37 °C using a wavelength of 412 nm during a period of 10 min, using a spectrophotometer (SpectraMax, Molecular Devices, UK).
AChE activity was expressed as enzyme activity (percent of control). […]

**Q.** CCCSP(=O)(OCC)Oc1ccc(Br)cc1Cl (centres unmarked) [profenofos, O-(4-bromo-2-chlorophenyl) O-ethyl S-propyl phosphorothioate] was tested. Which “JMPR NOAEL relative to US EPA BMDL10” value [1] did it give?
**A.** 50 fold

**Q.** And the IC50 [2]?
**A.** 302 nM
